Key:
[1] = biological target: T1, α1 and β1 subunits of guanylate cyclase (sGC), expressed in Sf9 cells (Homo sapiens, UniProt Q02108+Q02153); test: Guanylate Cyclase Assay (formation of cyclic GMP from GTP); format: biochemical; details: for Mean activation at 100 μM: (activity at 100 μM with 1 μM SNP − activity at 100 μM)/(activity of SNP at 1 μM − basal activity of sGC); for Mean efficacy at 100 μM with 1 μM of SNP, [% of YC-1]: compound at 100 μM with 1 μM sodium nitroprusside (SNP), normalized to 100 μM YC-1 (without SNP) as 100%; for Emax at 100 µM / Mean basal efficacy at 100 μM, [% of YC-1]: compound at 100 μM without SNP, normalized to activity of 100 μM YC-1 (without SNP) as 100%; for Emax at 100 µM: read-out: Mean basal efficacy at 100 μM, [% of YC-1]
T1 construct: made in house; host or cells: Sf9 insect cells (baculovirus co-infection); high-speed supernatant used unpurified
T1 sequence (Q02108 1-690): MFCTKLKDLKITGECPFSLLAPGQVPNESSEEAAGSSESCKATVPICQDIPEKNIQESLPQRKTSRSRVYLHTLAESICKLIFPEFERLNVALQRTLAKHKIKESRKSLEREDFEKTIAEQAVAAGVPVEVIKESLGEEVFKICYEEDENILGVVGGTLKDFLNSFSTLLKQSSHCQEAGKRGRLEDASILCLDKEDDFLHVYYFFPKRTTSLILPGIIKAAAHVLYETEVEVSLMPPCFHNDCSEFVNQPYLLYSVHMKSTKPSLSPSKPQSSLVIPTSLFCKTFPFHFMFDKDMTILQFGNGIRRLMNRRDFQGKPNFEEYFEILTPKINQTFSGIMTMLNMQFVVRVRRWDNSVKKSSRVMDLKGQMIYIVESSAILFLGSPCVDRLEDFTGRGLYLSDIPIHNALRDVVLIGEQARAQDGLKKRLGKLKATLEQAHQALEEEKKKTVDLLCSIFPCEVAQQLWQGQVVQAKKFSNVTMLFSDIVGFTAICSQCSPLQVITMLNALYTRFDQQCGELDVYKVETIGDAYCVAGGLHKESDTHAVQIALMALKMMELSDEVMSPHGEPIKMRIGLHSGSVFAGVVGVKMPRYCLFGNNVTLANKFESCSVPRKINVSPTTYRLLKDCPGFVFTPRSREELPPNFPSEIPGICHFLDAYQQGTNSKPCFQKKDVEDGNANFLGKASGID
T1 sequence (Q02153 1-619): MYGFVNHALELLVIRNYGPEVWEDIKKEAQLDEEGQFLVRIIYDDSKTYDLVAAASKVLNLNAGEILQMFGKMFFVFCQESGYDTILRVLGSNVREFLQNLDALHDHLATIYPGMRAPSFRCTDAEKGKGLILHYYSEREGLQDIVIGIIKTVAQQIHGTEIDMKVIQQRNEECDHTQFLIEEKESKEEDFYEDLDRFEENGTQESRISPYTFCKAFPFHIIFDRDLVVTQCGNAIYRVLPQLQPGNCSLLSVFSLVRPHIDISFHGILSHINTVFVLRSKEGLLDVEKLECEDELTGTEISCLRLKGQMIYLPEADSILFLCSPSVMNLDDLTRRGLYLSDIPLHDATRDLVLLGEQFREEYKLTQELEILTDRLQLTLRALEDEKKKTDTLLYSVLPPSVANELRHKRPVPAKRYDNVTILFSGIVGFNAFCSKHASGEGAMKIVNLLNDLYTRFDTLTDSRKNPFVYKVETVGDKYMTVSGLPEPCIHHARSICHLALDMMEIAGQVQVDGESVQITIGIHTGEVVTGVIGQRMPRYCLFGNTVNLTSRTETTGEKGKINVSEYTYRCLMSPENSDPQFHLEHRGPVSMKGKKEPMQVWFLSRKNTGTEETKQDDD
Protocol: Sf9 cells were cultured in Sf-90011 medium supplemented with 10% (v/v) fetal calf serum at 28° C. to give a count of 6×10^5 cells/ml. The cells were then infected with a mixture of the virus stocks for the α1 and β1 subunits of guanylate cyclase at a multiplicity of infection of 0.1 pfu/cell. The cells were harvested 72 hours after infection and were pelleted by centrifugation. The resulting cell pellets were homogenized with Polytron homogenizer in 3 volumes of 20 mM Tris-HCl (pH 7.6) containing 1 mM EDTA, 5 mM dithiothreitol, 90 mM NaCl, 10% glycerol, and protease inhibitors mix (Roche Molecular Biochemicals). The homogenate was centrifuged at 50,000×g for 60 minutes and the supernatant was aliquotted and stored at −80° C.
Compounds of the present invention were dissolved in DMSO to make 100 mM and saved as stocks at −20° C. When compounds were tested, 10-fold concentrated solutions with 10% DMSO were prepared. 10 μl of 10-fold concentrated compound solutions were added to the reaction mixture total of 100 μl.
Guanylate cyclase activity was measured by the formation of cyclic GMP from GTP in a total volume of 100 μl. Guanylate cyclase-expressed Sf9 cell high-speed supernatant (Sf9 high-speed sup) was used as an enzyme source for the assay. The reaction mixture containing 0.1 μl enzyme of Sf9 high-speed sup, compound solution, 50 mM Tris-HCl (pH 7.6), 4 mM MgCl2, 0.5 mM IBMX, 15 mM creatine phosphate, 20 μg creatine phosphokinase, 0.1% BSA and 1 mM GTP were incubated at 37° C. for 15 minutes. After the reaction, 0.9 ml of 50 mM sodium acetate buffer (pH 5.8) was added followed by boiling for 3 minutes to stop the reaction. The solution was centrifuged at 3000 rpm for 15 minutes at room temperature and cyclic GMP in 20 μl of the resulting supernatant was measured according to the protocol of Amersham cyclic GMP enzymeimmunoassay system (Amersham, RPN 226).
Compounds of the present invention were tested at 100 μM with and without 1 μM of sodium nitroprusside (SNP). YC-1 was included as a standard for each assay. The data was normalized with the activity of 100 μM YC-1 (without SNP) as 100%. Mean basal efficacy, in Table 1, was expressed as a percentage of 100 μM YC-1 (without SNP).
The mean activation, in Table 1, was calculated based on the formula: (activity of compound of the present invention at 100 μM with 1 μM SNP)−(activity of compound of on at 100 μM)/(activity of SNP at 1 μM)−(basal activity of sGC).

Compound | Mean activation at 100 μM [1] | Mean efficacy at 100 μM with 1 μM of SNP, [% of YC-1] [1] | Emax at 100 µM [1] [%] | melting point [°C] | Mean basal efficacy at 100 μM, [% of YC-1] [1]
Clc1ccc(NN=Cc2ccc(Oc3nn(Cc4ccccc4)c4ccccc34)o2)nn1 [Example 3, 5-[(1-benzyl-1H-indazol-3-yl)oxy]-2-furaldehyde (6-chloro-3-pyridazinyl)hydrazone] | 1.7 | 17 % of YC-1 | 0 | 200 to 202 | 
O=C(NCCCn1ccnc1)c1ccccc1Oc1nn(Cc2ccccc2)c2ccccc12 [Example 24, 2-[(1-benzyl-1H-indazol-3-yl)oxy]-N-[3-(1H-imidazol-1-yl)propyl]benzamide] | 1.7 | 12 % of YC-1 | 5 |  | 
O=C(NN1CCOCC1)c1ccccc1Oc1nn(Cc2ccccc2)c2ccccc12 [Example 25] | 1.9 | 14 % of YC-1 |  |  | 4 % of YC-1
O=C(NCC1CCCCC1O)c1ccccc1Oc1nn(Cc2ccccc2)c2ccccc12 (stereo not drawn) [Example 26, 2-[(1-benzyl-1H-indazol-3-yl)oxy]-N-[(2-hydroxycyclohexyl)methyl]benzamide] | 2.0 | 12 % of YC-1 | 1 |  | 
C(=Cc1ccccc1)Cn1nc(OCc2ccccc2)c2ccccc21 [Example 27, 3-(benzyloxy)-1-[3-phenyl-2-propenyl]-1H-indazole] | 1.7 | 18 % of YC-1 | -2 |  | 
OCc1ccc(-c2nn(Cc3ccccc3)c3ccccc23)o1 [YC-1, reference compound] | 2.7 | 224 % of YC-1 |  |  | 100 % of YC-1

More lines, main results first:

Mean activation at 100 μM [1] | Mean efficacy at 100 μM with 1 μM of SNP, [% of YC-1] [1] | Emax at 100 µM [1] [%] | melting point [°C] | Compound | Mean basal efficacy at 100 μM, [% of YC-1] [1]
1.8 | 20 % of YC-1 | 0 | 156 to 158 | OCc1cccc(Oc2nn(Cc3ccccc3)c3ccccc23)n1 [Example 2, {6-[(1-benzyl-1H-indazol-3-yl)oxy]-2-pyridinyl}methanol] | 
1.5 | 26 % of YC-1 | 0 | 162 to 165 | O=C(O)c1ccc(Oc2nn(Cc3ccccc3)c3ccccc23)o1 [Example 4, 5-[(1-benzyl-1H-indazol-3-yl)oxy]-2-furoic acid] | 
1.9 | 27 % of YC-1 | 6 |  | O=C(O)c1ccc(Cn2nc(OCc3ccccc3)c3ccccc32)o1 [Example 28, 5-{[3-(benzyloxy)-1H-indazol-1-yl]methyl}-2-furoic acid] | 
1.4 | 11 % of YC-1 | 1 | 80 to 82 | OCc1ccc(Cn2nc(OCc3ccccc3)c3ccccc32)o1 [Example 29, (5-{[3-(benzyloxy)-1H-indazol-1-yl]methyl}-2-furyl)methanol] | 
1.0 | 7 % of YC-1 | 4 | 111 to 113 | O=[N+]([O-])c1ccc(Oc2nn(Cc3ccccc3F)c3ncccc23)nc1 [Example 34, 1-(2-fluorobenzyl)-3-[(5-nitro-2-pyridinyl)oxy]-1H-pyrazolo[3,4-b]pyridine] | 
1.9 | 28.1 % of YC-1 | 7.1 | 115 to 117 | O=[N+]([O-])c1cccnc1Oc1nn(Cc2ccccc2F)c2ncccc12 [Example 35, 1-(2-fluorobenzyl)-3-[(3-nitro-2-pyridinyl)oxy]-1H-pyrazolo[3,4-b]pyridine] | 

— US20040048866A1 (priority 2002, published 2004)
